Results: article PMC6245189 (Molecules, 2008)

Assays:
[1] = biological target: T1, bovine testes hyaluronidase (BTH) (Bos taurus, UniProt Q2YDK3); assay: stains-all assay at pH […] and Morgan-Elson assay at pH […]; type: biochemical; conditions: read-out: IC50 [μM] / pH7
T1 sequence (Q2YDK3 36-553): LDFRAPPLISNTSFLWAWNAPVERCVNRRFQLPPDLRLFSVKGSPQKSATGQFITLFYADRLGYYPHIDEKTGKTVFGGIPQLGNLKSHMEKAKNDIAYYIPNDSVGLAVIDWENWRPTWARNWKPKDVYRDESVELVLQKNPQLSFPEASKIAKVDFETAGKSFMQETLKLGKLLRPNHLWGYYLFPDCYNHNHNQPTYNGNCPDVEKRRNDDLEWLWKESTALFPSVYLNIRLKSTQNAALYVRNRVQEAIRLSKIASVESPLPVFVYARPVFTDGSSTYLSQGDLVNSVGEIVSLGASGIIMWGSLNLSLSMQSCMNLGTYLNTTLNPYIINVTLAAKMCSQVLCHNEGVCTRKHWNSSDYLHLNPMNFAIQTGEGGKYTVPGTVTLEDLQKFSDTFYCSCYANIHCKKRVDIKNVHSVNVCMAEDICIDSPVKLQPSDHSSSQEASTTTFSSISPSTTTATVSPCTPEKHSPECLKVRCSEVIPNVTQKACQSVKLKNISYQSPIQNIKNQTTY

[2] = biological target: T1, bovine testes hyaluronidase (BTH); assay: Morgan-Elson assay at pH […]; type: biochemical; conditions: read-out: IC50 [μM] / 3.5

Structure (SMILES) | IC50 [1] [µM] | IC50 [2] [µM]
Oc1ccc(-c2[nH]c3ccccc3c2-c2ccccc2)cc1 [compound 12, 4-(3-Phenyl-1H-indol-2-yl)phenol] | 107 | 
CCCCCCCCCCCCCCCC(=O)OC[C@H](O)[C@H]1OC(=O)C(O)=C1O [6-palmitoyl-L-ascorbic acid] |  | 8
